From patent US12612413B2, “Heteroaryl compounds as inhibitors of programmed necrosis pathway, composition and method using the same” (ACCRO BIOSCIENCE INC., priority 2020, dated 2026)

system: HT-29 cells; assay: HT-29 cell viability (necroptosis) assay; assay type: cell-based; settings: Homo sapiens, TNF-α (40 ng/mL), Smac mimetic (100 nM), z-VAD (20 μM), 40 h, from survival rate curve
Protocol: Human colon cancer HT-29 cells were used in a necroptosis assay. For this assay, HT-29 cells were added to 96-well plates. The compounds at different concentrations (0.3, 1.0, 3.0, 10.0, 20.0 μM) were then preprocessed for two hours. TNF-α (40 ng/mL), Smac mimetic (100 nM) and z-VAD (20 μM) were added, and the mixture was incubated for 40 h. Quantitative analysis of cell viability was conducted. DMSO pretreatment group was used as a negative control. Concentration for 50% of maximal effect was calculated according to the curve of the survival rate measured at different concentrations. FIG. 1 depicts the EC50 curves of compound A16.

Row | SMILES | EC50 [nM]
1 | O=S1(=O)C=Cc2cc3nccc(Nc4ccc5scnc5c4)c3cc21 [Compound A2] | 1020
2 | CCC1=Cc2cc3nccc(Nc4ccc5scnc5c4)c3cc2S1(=O)=O [Compound A4] | 980
3 | CC(C)C1=Cc2cc3nccc(Nc4ccc5scnc5c4)c3cc2S1(=O)=O [Compound A5] | 760
4 | O=S1(=O)C(C2CC2)=Cc2cc3nccc(Nc4ccc5scnc5c4)c3cc21 [Compound A6] | 540
5 | CC1=C(C)S(=O)(=O)c2cc3c(Nc4ccc5scnc5c4)ccnc3cc21 [Compound A8] | 530
6 | CCC1=CS(=O)(=O)c2cc3c(Nc4ccc5scnc5c4)ccnc3cc21 [Compound A10] | 1380
7 | COC1=CS(=O)(=O)c2cc3c(Nc4ccc5scnc5c4)ccnc3cc21 [Compound A12, 8-(benzo[d]thiazol-5-ylamino)-3-methoxythieno[2,3-g]quinoline 1,1-dioxide] | 1030
8 | CC(C)OC1=Cc2cc3nccc(Nc4ccc5scnc5c4)c3cc2S1(=O)=O [Compound A15] | 500
9 | O=S1(=O)C=C(OCCO)c2cc3nccc(Nc4ccc5scnc5c4)c3cc21 [Compound A16, 8-(benzo[d]thiazol-5-ylamino)-3-(2-hydroxyethoxy)thieno[2,3-g]quinoline 1,1-dioxide] | 1290
10 | O=S1(=O)C=C(NCCO)c2cc3nccc(Nc4ccc5scnc5c4)c3cc21 [Compound A18] | 310
11 | COC1=C(C)S(=O)(=O)c2cc3c(Nc4ccc5scnc5c4)ccnc3cc21 [Compound A19] | 200
12 | COc1ccc(C2=CS(=O)(=O)c3cc4c(Nc5ccc6scnc6c5)ccnc4cc32)cc1 [Compound A23] | 1040
13 | O=S1(=O)C=C(c2ccc(O)cc2)c2cc3nccc(Nc4ccc5scnc5c4)c3cc21 [Compound A24] | 500
14 | N#Cc1ccc(C2=CS(=O)(=O)c3cc4c(Nc5ccc6scnc6c5)ccnc4cc32)cc1 [Compound A25] | 300
15 | O=S1(=O)C=C(c2ccc(F)cc2)c2cc3nccc(Nc4ccc5scnc5c4)c3cc21 [Compound A26] | 570
16 | O=S1(=O)C=C(c2cccnc2)c2cc3nccc(Nc4ccc5scnc5c4)c3cc21 [Compound A27] | 490
17 | O=S1(=O)C=C(c2ccncc2)c2cc3nccc(Nc4ccc5scnc5c4)c3cc21 [Compound A28] | 1010
18 | O=S1(=O)C=C(c2cn[nH]c2)c2cc3nccc(Nc4ccc5scnc5c4)c3cc21 [Compound A30] | 97
19 | Cn1cc(C2=CS(=O)(=O)c3cc4c(Nc5ccc6scnc6c5)ccnc4cc32)cn1 [Compound A31] | 1030
20 | Cc1cc(C2=CS(=O)(=O)c3cc4c(Nc5ccc6scnc6c5)ccnc4cc32)n(C)n1 [Compound A32] | 1200
21 | CC1=Cc2cc3nccc(Nc4n[nH]c5ccc(F)cc45)c3cc2S1(=O)=O [Compound A36] | 5790
22 | CC1=Cc2cc3nccc(Nc4cc(O)ccc4F)c3cc2S1(=O)=O [Compound A52] | 260
23 | CC1=Cc2cc3nccc(Nc4ccc(O)c(C#N)c4)c3cc2S1(=O)=O [Compound A58] | 3950
24 | CC1=Cc2cc3nccc(Nc4ccn5ccnc5c4)c3cc2S1(=O)=O [Compound A67, 8-(imidazo[1,2-a]pyridin-7-ylamino)-2-methylthieno[2,3-g]quinoline 1,1-dioxide] | 5710

same assay, conditions: Homo sapiens, compound at 20 μM, TNF-α (40 ng/mL), Smac mimetic (100 nM), z-VAD (20 μM), 40 h, read-out: HT-29(20 μM) Survival

Row | SMILES | viability at 20 µM [%]
25 | O=S1(=O)C=C(Br)c2cc3nccc(Nc4ccc5scnc5c4)c3cc21 [Compound A1, 8-(benzo[d]thiazol-5-ylamino)-3-bromothieno[2,3-g]quinoline 1,1-dioxide] | 4.5
26 | CC(C)C1=CS(=O)(=O)c2cc3c(Nc4ccc5scnc5c4)ccnc3cc21 [Compound A11] | 34.5
27 | Nc1cc(C2=CS(=O)(=O)c3cc4c(Nc5ccc6scnc6c5)ccnc4cc32)ccn1 [Compound A29] | 1.1
28 | O=S1(=O)C=C(n2ccnc2)c2cc3nccc(Nc4ccc5scnc5c4)c3cc21 [Compound A34] | 15.5
29 | CC1=Cc2cc3nccc(Nc4ccc5cn[nH]c5c4)c3cc2S1(=O)=O [Compound A35] | 33
30 | CC1=Cc2cc3nccc(Nc4n[nH]c(C)c4C)c3cc2S1(=O)=O [Compound A38] | 37.6
31 | CC1=Cc2cc3nccc(Nc4ccc5[nH]nnc5c4)c3cc2S1(=O)=O [Compound A39] | 63.5
32 | CC1=Cc2cc3nccc(Nc4ccc5nc[nH]c5c4)c3cc2S1(=O)=O [Compound A40] | 5.8
33 | CC1=Cc2cc3nccc(Nc4ccc5c(c4)CNCC5)c3cc2S1(=O)=O [Compound A41] | 9.8
34 | CC1=Cc2cc3nccc(Nc4ccc5c(c4)CN(C)CC5)c3cc2S1(=O)=O [Compound A42] | 23.1
35 | CC1=Cc2cc3nccc(Nc4ccc5c(c4)C(=O)NCC5)c3cc2S1(=O)=O [Compound A43] | 48.8
36 | CC1=Cc2cc3nccc(Nc4cnc5snc(C)c5c4)c3cc2S1(=O)=O [Compound A44] | 20.1
37 | CC1=Cc2cc3nccc(Nc4cnc5scnc5c4)c3cc2S1(=O)=O [Compound A45] | 27.6
38 | CC1=Cc2cc3nccc(Nc4cc(O)ccc4C)c3cc2S1(=O)=O [Compound A46] | 13.1
39 | COc1ccc(C)c(Nc2ccnc3cc4c(cc23)S(=O)(=O)C(C)=C4)c1 [Compound A47] | 17.5
40 | CC(=O)Nc1ccc(C)c(Nc2ccnc3cc4c(cc23)S(=O)(=O)C(C)=C4)c1 [Compound A48] | 7.8

Row | SMILES | viability at 20 µM [%]
41 | CC1=Cc2cc3nccc(Nc4cc(N)ccc4C)c3cc2S1(=O)=O [Compound A49] | 60.3
42 | CC1=Cc2cc3nccc(Nc4cc(CN)ccc4C)c3cc2S1(=O)=O [Compound A50, 8-((5-(aminomethyl)-2-methylphenyl)amino)-2-methylthieno[2,3-g]quinoline 1,1-dioxide] | 17.9
43 | CC1=Cc2cc3nccc(Nc4ccc(O)cc4C)c3cc2S1(=O)=O [Compound A51] | 16.1
44 | CC1=Cc2cc3nccc(Nc4ccc(O)c(F)c4)c3cc2S1(=O)=O [Compound A54] | 31.9
45 | CC1=Cc2cc3nccc(Nc4ccc(O)c(Cl)c4)c3cc2S1(=O)=O [Compound A55] | 25.6
46 | CC1=Cc2cc3nccc(Nc4ccc(O)c(Br)c4)c3cc2S1(=O)=O [Compound A56] | 23.2
47 | CC1=Cc2cc3nccc(Nc4ccc(O)c(C(F)(F)F)c4)c3cc2S1(=O)=O [Compound A57] | 15.3
48 | CC1=Cc2cc3nccc(Nc4cc(O)cc(F)c4)c3cc2S1(=O)=O [Compound A59] | 27.9
49 | CC1=Cc2cc3nccc(Nc4cc(O)cc(Br)c4)c3cc2S1(=O)=O [Compound A60] | 13.9
50 | CC1=Cc2cc3nccc(Nc4cc(O)cc(C#N)c4)c3cc2S1(=O)=O [Compound A61] | 29.2
51 | C#Cc1cc(O)cc(Nc2ccnc3cc4c(cc23)S(=O)(=O)C(C)=C4)c1 [Compound A62] | 22.3
52 | CC1=Cc2cc3nccc(Nc4cc(N)ncc4C)c3cc2S1(=O)=O [Compound A63] | 48.8
53 | CC1=Cc2cc3nccc(Nc4cncc(N)c4)c3cc2S1(=O)=O [Compound A64] | 20.2
54 | CC1=Cc2cc3nccc(Nc4ccnc(N)c4)c3cc2S1(=O)=O [Compound A65, 8-((2-aminopyridin-4-yl)amino)-2-methylthieno[2,3-g]quinoline 1,1-dioxide] | 19.5
55 | CC1=Cc2cc3nccc(Nc4ccc5ncnn5c4)c3cc2S1(=O)=O [Compound A68] | 11.9
